# Experimental data reported in patent US20030228299A1, “Use of antioxidant for treating and/or preventing surface ocular disorders” (priority 2003, published 2003).
# Tests used:
# [1] = test system: corneal and conjunctival cells of human origin, in culture; assay: Hydroethidine test of superoxide anion production; format: cell-based; details: different concentrations; cells exposed to various aggressors
# Experimental: Corneal and conjunctival cells of human origin, in culture, exposed to various aggressors in order to induce the release of free radicals, are treated with the active compounds of the present invention (Cu/Zn SOD or alpha-lipoic acid) at different concentrations, or are left untreated.
# Hydroethidine (Molecular Probes) is a fluorogenic probe which is oxidized to the ethidium cation in the presence of the superoxide anion. This probe becomes fluorescent when it binds to the superoxide anion (λexc.=490 nm−λem.=600 nm, I=6 V). The hydroethidine solution used is a 5 μM solution. The cell cultures are placed for 10 minutes in DMEM containing the probe, after which the cells are extracted in order to measure the production of superoxide anion. The measurement is made in 96-well microplates.
# The analyses are thus performed on 5000 cells per well, each measurement being repeated six times. The results are expressed in fluorescence units. The mean fluorescence values are calculated in each group and compared by a Mann-Whitney non-parametric U-test.
# [2] = test system: continuous-line conjunctival cells (Wong-Kilbourne derivative of Chang conjunctiva, clone 1-5C-4, ATCC CCL-20.2); assay: Apoptosis induced by benzalkonium chloride, percentage of cellular DNA in the sub-G1 phase by flux cytofluorimetry; format: cell-based
# Experimental: The apoptosis induced by benzalkonium chloride was chosen as the model of superficial eye disorders treated and/or prevented by the invention.
# This study of apoptosis is conducted using flux cytofluorimetry to compare the percentage of DNA in the sub-G1 phase obtained before and after treatment with the compounds of the invention.
# In fact, apoptosis is characterized by a fragmentation of the DNA into identical fragments of 200 base pairs. The cells involved in this process therefore have a reduced DNA content.
# This fragmentation of the DNA can be measured in situ by flux cytofluorimetry using the DNA stain propidium iodide. The reduced DNA appears with a lower fluorescence intensity than that of normal cells. […] The number of normal cells appears in the G1 peak zone. On the other hand, the cells which have a lower fluorescence intensity, i.e. those whose DNA has been fragmented, appear underneath this G1 peak, i.e. in what is called the sub-G1 peak located in the zone marked M1 in FIG. 1.
# Apoptosis was induced by adding 0.001% by volume of benzalkonium chloride (BAC), based on the total volume of the sample, to DMEM (Dulbecco-modified Eagle's medium: reference 21885, Gibco BRL Products; enriched with 10% by volume of fetal calf serum, based on the total volume of the sample, and supplemented with […] of streptomycin and 50 IU/ml of penicillin) in which conjunctival cells are cultivated in 6-well plates.
# In practice, the conjunctival cells were cultivated in the culture medium described above and, at 80% confluence, SOD, alpha-lipoic acid and mixtures thereof were added and incubation was carried out for 45 minutes at 37° C. Benzalkonium chloride was then added to each well. After 15 minutes of incubation, the supernatants in each well were collected in 15 ml tubes; the cells were detached by the action of 0.25% trypsin for 5 minutes at 37° C. and added to their respective supernatants. After centrifugation of the tubes, the cells were washed twice in phosphate buffer. The cellular residue was resuspended in phosphate buffer at a concentration of 1 million cells per milliliter.
# One hundred microliters of this cellular suspension having a concentration of 10^6/ml were first fixed and permeabilized in one milliliter of absolute ethanol at −20° C. for one hour; then, after washing in phosphate buffer, the DNA was stained with propidium iodide (100 microliters at a concentration of 0.5 mg/ml) for one hour at 4° C. and subsequently analyzed on a cytofluorimeter (Epics XL-MCL, Beckman).
# The percentage of sub-G1 peaks, i.e. the percentage of fragmented DNA, and consequently the number of conjunctival cells degraded by apoptosis, was measured.
# [3] = test system: corneal and/or conjunctival cells of human origin, in culture; assay: Dichlorofluorescein diacetate (DCFH-DA) test of free radicals (hydrogen peroxide); format: cell-based; details: different concentrations; cells exposed to environmental agents
# Experimental: The tests are performed by cytofluorimetric microtitration in cold light. […] It combines the reproducibility of the microplate methods with the sensitivity of the cytometric methods and has a very broad detection spectrum (280-870 nm). The microplate is scanned by a pencil of light of a given wavelength which illuminates each culture well for less than 0.3 second, thereby limiting any probe extinction phenomenon.
# Corneal and/or conjunctival cells of human origin, in culture, are exposed to various environmental agents in order to induce the release of free radicals. The active compounds of the invention (Cu/Zn SOD or alpha-lipoic acid) are tested at different concentrations on this model. The presence of free radicals in the culture medium is evaluated by the DCFH-DA test (Molecular Probes, Eugene, Oreg., USA) in fluorimetry (λexc.=490 nm−rem.=535 nm, I=4 V). The fluorogenic probe becomes fluorescent when it binds to hydrogen peroxide. The DCFH-DA solution used is a 20 μM solution in Dulbecco-modified minimum essential medium (DMEM). The cultures are then placed for 20 minutes in DMEM containing the probe, after which they are extracted in order to measure the production of hydrogen peroxide. The measurement is made directly on the cells in 96-well plates (Debbasch C. et al. 2000).
# [4] = after instillation into the eye (De Saint Jean et al. 1999); cited from earlier work
Compound,Production of superoxide anion and cellular degeneration associated with lipid peroxidation (hydroethidine test) [1],Percentage of sub-G1 peaks ([2]; alpha-lipoic acid 0.5 μg/ml DMEM + BAC 0.001%) [%],"Percentage of sub-G1 peaks ([2]; alpha-lipoic acid 0.5 μg/ml in DMEM, no BAC (control)) [%]",Percentage of sub-G1 peaks ([2]; alpha-lipoic acid 5 μg/ml DMEM + BAC 0.001%) [%],"Percentage of sub-G1 peaks ([2]; alpha-lipoic acid 5 μg/ml in DMEM, no BAC (control)) [%]",Deleterious effects of free radicals on corneal and/or conjunctival cells (DCFH-DA test) [3],"Percentage of sub-G1 peaks ([2]; BAC 0.001% alone in DMEM (reference, maximum apoptosis; DMEM control = 10)) [%]",Half-life [4] [h]
"O=C(O)CCCCC1CCSS1 (racemic) [Alpha-lipoic acid, racemic alpha-lipoic acid]",significant dose-related reduction,8,7,13,7,significant dose-related decrease,–,–
benzalkonium chloride [BAC],–,–,–,–,–,–,23,20
